Results published in paper PMC9493392, “N-glycosylation modulates enzymatic activity of Trypanosoma congolense trans-sialidase” (The Journal of Biological Chemistry, 2022).

Tests used:
[1] = system: T1, H-TconTS1; experiment: HPAEC-PAD of […]'-sialyllactose formed, […] min, Michaelis-Menten fit; format: biochemical, Trypanosoma congolense; conditions: two biological replicates, purified differently after EndoHf; sialic acid acceptor; donor fetuin (600 μM bound Neu5Ac); 10 mM potassium phosphate pH 7.4, 37 °C; EndoHf-treated hypoglycosylated enzyme
T1 construct: same polypeptide as P1 (SNAP and Strep tag kept, CHO Lec1 cells), but N-glycans partly removed with EndoHf (16 h), leaving single GlcNAc residues; hypoglycosylated

[2] = system: T2, TconTS1; experiment: as above; format: biochemical, Trypanosoma congolense; conditions: two biological replicates; sialic acid acceptor; donor fetuin (600 μM bound Neu5Ac); 10 mM potassium phosphate pH 7.4, 37 °C; N-glycosylated enzyme
T2 construct: catalytic plus lectin-like domain; C3 protease site, C-terminal SNAP and Strep tag kept; secreted by CHO Lec1 cells; high-mannose N-glycans; mock-incubated 16 h at 37 °C

SMILES: OC[C@H]1O[C@@H](O[C@H]2[C@H](O)[C@@H](O)C(O)O[C@@H]2CO)[C@H](O)[C@@H](O)[C@H]1O (some centres unmarked) [lactose]
- KM (apparent) [1]: 9.0 and 3.2 mM
- KM (apparent) [2]: 1.7 and 2.0 mM
